From patent publication US20230339886A1 (University of Florida Research Foundation, Incorporated, priority 2020, published 2023)
pEC50: −log10 of the molar value.

The molecules below were run against T1, REV-ERBα LBD (human; residues 281-614 Δ324-422) (Homo sapiens, UniProt P20393, DEL324-422) (assay: TR-FRET corepressor interaction assay (REV-ERBα LBD, FITC-SMRT peptide)). Conditions: FITC-SMRT peptide, read-out: REVERBα agonism (EC50 class, FRET assay).
T1 construct: 6×Histag-REV-ERBα LBD (human; residues 281-614 Δ324-422); made in house; host or cells: Escherichia coli
T1 sequence (P20393 with tags, fused parts or gaps DEL324-422): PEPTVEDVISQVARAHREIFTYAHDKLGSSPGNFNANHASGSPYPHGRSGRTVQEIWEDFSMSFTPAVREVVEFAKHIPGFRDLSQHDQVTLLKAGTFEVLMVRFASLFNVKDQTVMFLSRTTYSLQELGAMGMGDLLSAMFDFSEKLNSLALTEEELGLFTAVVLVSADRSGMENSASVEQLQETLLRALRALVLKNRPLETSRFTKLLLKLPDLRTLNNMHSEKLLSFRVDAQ
T1 sequence (Q9Y618 2335-2356 partner limits assumed): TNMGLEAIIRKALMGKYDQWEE
Assay type: biochemical
Method in brief: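 Compound serial dilutions (in DMSO, triplicate) incubated 2 h at 4 °C; Tb donor excited at 340 nm, emission read at 495 nm and FITC acceptor at 520 nm. TR-FRET ratio (520/495 nm) plotted against ligand concentration and fitted to a sigmoidal dose-response curve.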

| SMILES | pEC50 |
| --- | --- |
| CC(C)(C)Cn1cc(C(NS(=O)(=O)C2CCC2)C2CC2)c2ccc(-c3ccccc3C(F)(F)F)cc21 (stereo not drawn) [Example 424, N-(cyclopropyl(1-neopentyl-6-(2-(trifluoromethyl)phenyl)-1H-indol-3-yl)methyl)cyclobutanesulfonamide] | > 6.30 |
| CC(C)(C)Cn1cc([C@H](NS(=O)(=O)C2CCC2)C(F)(F)F)c2ccc(C3CCCC3)nc21 [Example 427, (S)—N-(1-(6-cyclopentyl-1-neopentyl-1H-pyrrolo[2,3-b]pyridin-3-yl)-2,2,2-trifluoroethyl)cyclobutanesulfonamide] | > 6.30 |
| CC(C)(C)Cn1cc([C@H](NS(=O)(=O)C2CCC2)C(F)(F)F)c2cc(F)c(C3CCCC3)cc21 [Example 428, (S)—N-(1-(6-cyclopentyl-5-fluoro-1-neopentyl-1H-indol-3-yl)-2,2,2-trifluoroethyl)cyclobutanesulfonamide] | > 6.30 |
| CCOC(=O)[C@@H](NS(=O)(=O)C1CC1)c1cn(CC(C)(C)C)c2cc(-c3ccccc3C(F)(F)F)ccc12 [Example 430, ethyl (S)-2-(cyclopropanesulfonamido)-2-(1-neopentyl-6-(2-(trifluoromethyl)phenyl)-1H-indol-3-yl)acetate] | < 5.52 |
| CC(C)(C)Cn1cc([C@H](NS(=O)(=O)C2CC2)C(=O)O)c2ccc(-c3ccccc3C(F)(F)F)cc21 [Example 431, (S)-2-(cyclopropanesulfonamido)-2-(1-neopentyl-6-(2-(trifluoromethyl)phenyl)-1H-indol-3-yl)acetic acid] | < 5.52 |
| CC(C)(C)Cn1cc([C@@H](CO)NS(=O)(=O)C2CC2)c2ccc(-c3ccccc3C(F)(F)F)cc21 [Example 432, (S)—N-(2-hydroxy-1-(1-neopentyl-6-(2-(trifluoromethyl)phenyl)-1H-indol-3-yl)ethyl)cyclopropanesulfonamide] | > 6.30 |
| CC(NS(=O)(=O)C12CC(C1)C2)c1cn(CC(C)(C)C)c2cc(-c3ccccc3C(F)(F)F)ccc12 (stereo not drawn) [Example 433, N-(1-(1-neopentyl-6-(2-(trifluoromethyl)phenyl)-1H-indol-3-yl)ethyl)bicyclo[1.1.1]pentane-1-sulfonamide] | > 6.30 |
| CC(C)(C)Cn1cc([C@H](NS(=O)(=O)C2CCC2)C(F)F)c2cc(F)c(-c3ccccc3C(F)(F)F)cc21 [Example 435, (S)—N-(2,2-difluoro-1-(5-fluoro-1-neopentyl-6-(2-(trifluoromethyl)phenyl)-1H-indol-3-yl)ethyl)cyclobutanesulfonamide] | > 6.30 |
| CCCn1cc([C@H](NS(=O)(=O)C2CCC2)C(F)(F)F)c2ccc(-c3ccccc3C(F)(F)F)cc21 [Example 438, (S)—N-(2,2,2-trifluoro-1-(1-propyl-6-(2-(trifluoromethyl)phenyl)-1H-indol-3-yl)ethyl)cyclobutanesulfonamide] | > 6.30 |
| CC(C)(C)Cn1cc([C@H](NS(=O)(=O)C2CCC2)C(F)(F)F)c2cc(F)c(-c3ccccc3C#N)cc21 [Example 440, (S)—N-(1-(6-(2-cyanophenyl)-5-fluoro-1-neopentyl-1H-indol-3-yl)-2,2,2-trifluoroethyl)cyclobutanesulfonamide] | > 6.30 |
| CC(C)(C)Cn1cc([C@H](NS(=O)(=O)C2CCC2)C(F)(F)F)c2cc(F)c(-c3cnccc3C#N)cc21 [Example 441, (S)—N-(1-(6-(4-cyanopyridin-3-yl)-5-fluoro-1-neopentyl-1H-indol-3-yl)-2,2,2-trifluoroethyl)cyclobutanesulfonamide] | > 6.30 |
| CC(C)(C)Cn1cc([C@H](NS(=O)(=O)C2CCC2)C(F)(F)F)c2cc(F)c(-c3ncccc3C(F)(F)F)cc21 [Example 444, (S)—N-(2,2,2-trifluoro-1-(5-fluoro-1-neopentyl-6-(3-(trifluoromethyl)pyridin-2-yl)-1H-indol-3-yl)ethyl)cyclobutanesulfonamide] | > 6.30 |
| [2H]C(C)(NS(=O)(=O)C1CCC1)c1cn(CC(C)(C)C)c2cc(-c3ccccc3C(F)(F)F)ccc12 (stereo not drawn) [Example 445, N-(1-(1-neopentyl-6-(2-(trifluoromethyl)phenyl)-1H-indol-3-yl)ethyl-1-d)cyclobutanesulfonamide] | > 6.30 |
| CCC(C)n1cc([C@H](NS(=O)(=O)C2CCC2)C(F)(F)F)c2ccc(-c3ccccc3C(F)(F)F)cc21 (stereo partly drawn) [Example 446, N-((1S)-1-(1-(sec-butyl)-6-(2-(trifluoromethyl)phenyl)-1H-indol-3-yl)-2,2,2-trifluoroethyl)cyclobutanesulfonamide] | > 6.30 |

Other lines, results leading:

| pEC50 | SMILES |
| --- | --- |
| > 6.30 | CC(NS(=O)(=O)C1CC1)c1cn(CC(C)(C)C)c2cc(-c3ccccc3C(F)(F)F)c(F)cc12 (stereo not drawn) [Example 423, N-(1-(5-fluoro-1-neopentyl-6-(2-(trifluoromethyl)phenyl)-1H-indol-3-yl)ethyl)cyclopropanesulfonamide] |
| > 6.30 | CCC(NS(=O)(=O)C1CCC1)c1cn(CC(C)(C)C)c2cc(-c3ccccc3C(F)(F)F)ccc12 (stereo not drawn) [Example 425, N-(1-(1-neopentyl-6-(2-(trifluoromethyl)phenyl)-1H-indol-3-yl)propyl)cyclobutanesulfonamide] |
| 5.52 to 6.30 | CC(C)(C)Cn1cc([C@H](NS(=O)(=O)C2CC2(C)C)C(F)(F)F)c2ccc(-c3ccccc3C(F)(F)F)cc21 (stereo partly drawn) [Example 426, 2,2-dimethyl-N—((S)-2,2,2-trifluoro-1-(1-neopentyl-6-(2-(trifluoromethyl)phenyl)-1H-indol-3-yl)ethyl)cyclopropane-1-sulfonamide] |
| > 6.30 | CC(C)(C)Cn1cc([C@H](CF)NS(=O)(=O)C2CCC2)c2ccc(-c3ccccc3C(F)(F)F)cc21 [Example 429, (R)—N-(2-fluoro-1-(1-neopentyl-6-(2-(trifluoromethyl)phenyl)-1H-indol-3-yl)ethyl)cyclobutanesulfonamide] |
| < 5.52 | NC(=O)c1cccc(F)c1-c1ccc2c([C@H](NS(=O)(=O)C3CCC3)C(F)(F)F)cn(C3CCOCC3)c2c1 [Example 434, (S)-2-(3-(1-(cyclobutanesulfonamido)-2,2,2-trifluoroethyl)-1-(tetrahydro-2H-pyran-4-yl)-1H-indol-6-yl)-3-fluorobenzamide] |
| > 6.30 | CC(C)(C)Cn1cc([C@@H](CF)NS(=O)(=O)C2CCC2)c2cc(F)c(-c3ccccc3C(F)(F)F)cc21 [Example 436, (S)—N-(2-fluoro-1-(5-fluoro-1-neopentyl-6-(2-(trifluoromethyl)phenyl)-1H-indol-3-yl)ethyl)cyclobutanesulfonamide] |
| 5.52 to 6.30 | CC(C)(C)Cn1cc([C@H](NS(=O)(=O)C2CC(F)C2)C(F)(F)F)c2ccc(-c3ccccc3C(F)(F)F)cc21 (stereo partly drawn) [Example 437, (S)-3-fluoro-N-(2,2,2-trifluoro-1-(1-neopentyl-6-(2-(trifluoromethyl)phenyl)-1H-indol-3-yl)ethyl)cyclobutane-1-sulfonamide] |
| 5.52 to 6.30 | NC(=O)c1cccc(F)c1-c1ccc2c([C@H](NS(=O)(=O)C3CCC3)C(F)(F)F)cn(C3CCC3)c2c1 [Example 439, (S)-2-(3-(1-(cyclobutanesulfonamido)-2,2,2-trifluoroethyl)-1-cyclobutyl-1H-indol-6-yl)-3-fluorobenzamide] |
| 5.52 to 6.30 | CC(F)(F)Cn1cc([C@H](NS(=O)(=O)C2CCC2)C(F)(F)F)c2ccc(-c3ccccc3C(F)(F)F)cc21 [Example 442, (S)—N-(1-(1-(2,2-difluoropropyl)-6-(2-(trifluoromethyl)phenyl)-1H-indol-3-yl)-2,2,2-trifluoroethyl)cyclobutanesulfonamide] |

Same assay, conditions: Table 2, read-out: REVERBα agonism (EC50 class, FRET assay)

| SMILES | pEC50 |
| --- | --- |
| CC(C)S(=O)(=O)NCCn1cc(CC(C)(C)C)c2cc(-c3ccc(C(F)(F)F)cc3C(F)(F)F)ccc21 [Example 417, N-(2-(5-(2,4-bis(trifluoromethyl)phenyl)-3-neopentyl-1H-indol-1-yl)ethyl)propane-2-sulfonamide] | > 6.30 |
| CC(C)(C)Cn1cc([C@H](NS(=O)(=O)C2CC(F)(F)C2)C(F)(F)F)c2ccc(-c3ccccc3C(F)(F)F)cc21 [Example 419, (S)-3,3-difluoro-N-(2,2,2-trifluoro-1-(1-neopentyl-6-(2-(trifluoromethyl)phenyl)-1H-indol-3-yl)ethyl)cyclobutane-1-sulfonamide] | 5.52 to 6.30 |
| CC(NS(=O)(=O)C1CC1)c1cn(CC(C)(C)C)c2cc(-c3ccccc3C(F)(F)F)ccc12 (stereo not drawn) [Example 420, N-(1-(1-neopentyl-6-(2-(trifluoromethyl)phenyl)-1H-indol-3-yl)ethyl)-cyclopropanesulfonamide] | > 6.30 |
| O=S(=O)(N[C@@H](c1cn(CC2CCCC2)c2cc(-c3ccccc3C(F)(F)F)c(F)cc12)C(F)(F)F)C1CCC1 [Example 421, (S)—N-(1-(1-(cyclopentylmethyl)-5-fluoro-6-(2-(trifluoromethyl)phenyl)-1H-indol-3-yl)-2,2,2-trifluoroethyl)cyclobutanesulfonamide] | > 6.30 |

Second part, the molecule after the results:

| pEC50 | SMILES |
| --- | --- |
| < 5.52 | CC(C)(C)Cn1cc([C@H](NS(=O)(=O)C2CCC2)C(F)(F)F)c2ccc(C(F)(F)F)cc21 [Example 416, (S)—N-(2,2,2-trifluoro-1-(1-neopentyl-6-(trifluoromethyl)-1H-indol-3-yl)ethyl)cyclobutanesulfonamide] |
| > 6.30 | CC(C)(C)Cc1cn(CCNS(=O)(=O)C2CCC2)c2ccc(-c3ccc(C(F)(F)F)cc3C(F)(F)F)cc12 [Example 418, N-(2-(5-(2,4-bis(trifluoromethyl)phenyl)-3-neopentyl-1H-indol-1-yl)ethyl)cyclobutanesulfonamide] |
| > 6.30 | O=S(=O)(N[C@@H](c1cn(CC2CCCC2)c2cc(-c3ccccc3C(F)(F)F)c(F)cc12)C(F)(F)F)C1CC1 [Example 422, (S)—N-(1-(1-(cyclopentylmethyl)-5-fluoro-6-(2-(trifluoromethyl)phenyl)-1H-indol-3-yl)-2,2,2-trifluoroethyl)cyclopropanesulfonamide] |
